Laboratory results taken from PubChem BioAssay AID2305 (GlaxoSmithKline (GSK), 2010).
Several values for one entry are separate records, joined by “and”; a condition that tells them apart may be missing. Equal values may be shown once.

Tested on: P. falciparum 3D7 growth, pLDH absorbance
Test: blood-stage malaria parasite growth potency – strain 3D7, dose response (AID 2305)

SMILES | IC50
O=C1c2ccccc2C(=O)N1c1ccc(S(=O)(=O)N2CCOCC2)cc1 | 1260 nM
COc1ccc(OC)c2c1C[C@@H]1NC[C@H]2c2c(OC)ccc(OC)c21 | 970 nM
O=C(/C=C/c1ccc(Cl)c(Cl)c1)NCCCCCCN1CCCN(C(=O)Nc2ccc(F)c(Cl)c2)CC1 | 740 nM
Cc1[nH]c(C)c(-c2ccc(Oc3ccc(S(C)=O)cc3)cc2)c(=O)c1Br (centres undefined) | 760 nM
Nc1ncc(-c2ccc(Cl)c(Cl)c2)c(N)n1 | 730 nM
CC(C)C[C@H](NC(=O)c1cc2ccccc2s1)C(=O)N[C@H]1CCN(Cc2ccc(OC[C@@H]3CCCN3C)c3ccccc23)C1 | 1160 nM
CCC(CSC1CCCCC1)N(C)CCN(C)C(CC)CSC1CCCCC1 (centres undefined) | 310 nM
CC(C)(C)c1ccc(CNC(=O)c2cc(CNC3CCC(N)CC3)ccc2O)cc1 (centres undefined) | 1030 nM
CC(C)(C)NS(=O)(=O)c1cc(C(=O)N2CCC(CCN3CCC(C(=O)c4ccc(F)cc4)CC3)(c3cccc(F)c3)CC2)c(Cl)cc1F | 750 nM
O=C(Nc1cccc(-c2ccc(-c3nc4ccc(C(F)(F)F)cc4[nH]3)cc2)c1)c1csnn1 | 690 nM
O=C(Nc1ccc(OC2CCN(Cc3ccc(F)cc3)CC2)c(Cl)c1)c1ccc(F)cc1 | 190 nM
OC(CN1c2ccccc2Sc2ccccc21)CN(C1CCCCC1)C1CCCCC1 (centres undefined) | 650 nM
O=C(/C=C/c1ccc(Cl)c(Cl)c1)NCCCCCN1CCC(NC(=O)Nc2ccc(Cl)c(Cl)c2)CC1 | 890 nM
Cc1noc(-c2ccccc2)c1CN1CCCC2(CC(C(=O)NCc3cccc(F)c3F)=NO2)C1 (centres undefined) | 1010 nM
O=c1cc(NCCCNC(c2ccccc2)c2ccc(Cl)c(Cl)c2)[nH]c2ccccc12 (centres undefined) | 1140 nM
O=C(Nc1ccc(F)cc1)c1cnc(N2CCN(c3ccncc3)CC2)c(Cl)c1 | 740 nM
CCc1ccc(C2CCN(CCCCNC(=O)c3ccc(NC(=O)c4ccc(Cl)cc4)cc3)CC2)cc1 | 650 nM
COc1cccc(Nc2nc(Nc3cccc(C#N)c3)cc(C(F)(F)F)n2)c1 | 830 nM
COc1ccc2nccc([C@@H](O)CN3CCC(NC(=O)C(c4cc5ccccc5o4)N4CCN(c5ccccc5)CC4)CC3)c2c1 (some centres undefined) | 240 nM
CC(=NNC(=S)NCCc1ccccc1)c1ccccn1 | 220 nM
O=C1CCCN1CCCNCc1ccc(-c2cccc(-c3nc4ccc(F)cc4[nH]3)c2)cc1 | 660 nM
CCOC(=O)c1c(NC(=O)c2ccccc2)sc2c(O)c(CN(CC)CC)ccc12 | 970 nM
N#Cc1ccc(CN2CCC(Oc3ccc(NC(=O)c4cccs4)cc3Cl)C2)cc1 (centres undefined) | 400 nM
CCCCc1ccccc1NS(=O)(=O)c1ccc(OC)c(N2CCNCC2)c1 | 1380 nM

SMILES | IC50
Cc1cc(N[C@@H](Cc2ccccc2)C(=O)Nc2ccccc2)nc(NCCc2ccccc2)n1 | 870 nM
COc1cc(-c2nc(-c3ccccc3)c(-c3ccc([N+](=O)[O-])cc3)[nH]2)cc(OC)c1O | 830 nM
COc1ccccc1C1CCN(C2CCC(NC(=O)/C=C/c3cc(F)cc(C(F)(F)F)c3)CC2)CC1 (centres undefined) | 900 nM
Cc1ccc(-c2ccc(NC(=O)N3CCc4cc(Br)c(N5CCN(C)CC5)cc43)cc2)cn1 | 1350 nM
O=C(Cc1ccccc1)NC(CCN1CCC(N(C2CC2)S(=O)(=O)c2cccc(C(F)(F)F)c2)CC1)c1ccc(Cl)c(Cl)c1 (centres undefined) | 1270 nM
c1cc(-c2ccc(CNC3CCOCC3)cc2)cc(-c2nc3ccccc3[nH]2)c1 | 770 nM
CCCCN1CC[C@@H](CCC(O)c2ccnc3ccc(OCCC(C)C)cc23)[C@@H](CC)C1 (some centres undefined) | 990 nM
CCNc1cc(C(=O)N[C@@H](Cc2cccc(F)c2)[C@H](O)CNC(C)CCCC(C)C)cc(N2CCCCS2(=O)=O)c1 (some centres undefined) | 600 nM
CCOC(=O)c1c(-c2ccccc2)c(C(=O)OCC)n2ccccc12 | 610 nM
CCCCCCOc1ccc(C(=O)NCCC2CCN(CCCCCNC(=O)C=Cc3ccc(Cl)c(Cl)c3)CC2)cc1 | 660 nM
O=C(Cc1cccc(Cl)c1)N1CCc2cc3nccc(N4CCN5CCC[C@H]5C4)c3cc21 | 850 nM
O=C(NC1CCCCC1)c1csc(C2CCCN(C(=O)c3ccc(O)c(-c4cccc(C(F)(F)F)c4)c3)C2)n1 (centres undefined) | 1670 nM
O=C(NC(Cc1ccccc1)C(=O)O)c1cc(=O)c2ccccc2o1 (centres undefined) | 190 nM
Cc1cc(N2CCOCC2)nc2ccc(NC(=O)c3ccc(Cl)c([N+](=O)[O-])c3)cc12 | 1030 nM
c1ccc2c(CNCCCN3CCN(CCCNCc4c5ccccc5cc5ccccc45)CC3)c3ccccc3cc2c1 | 180 nM
O=C(Nc1ccc2c(c1)CCN2C1CCN(Cc2cccc(F)c2F)C1)c1ccco1 (centres undefined) | 790 nM
Cc1ccc(/C=C/C(=O)NCCCCCN2CCN(C(=O)Nc3ccc(Cl)c(C(F)(F)F)c3)CC2)cc1 | 1110 nM
COc1ccc2nccc([C@@H](O)CN3CCC(NCc4ccc5c(c4)NC(=O)CS5)CC3)c2n1 | 750 nM
Cc1cccc2[nH]c(-c3ccc(-c4ccc(NC(=O)Nc5cccc(C#N)c5)cc4)cc3)nc12 | 110 nM
CN(Cc1c(Cl)cnn1C)S(=O)(=O)c1ccc2ccccc2c1 | 1040 nM
COc1ccc2nccc([C@@H](O)CN3CCC(NC(=O)C(c4cc5ccccc5s4)N4CCN(c5ccccc5OC)CC4)CC3)c2c1 (some centres undefined) | 160 nM
Cc1ccc(C)c(Cn2c(N3CCC(C(=O)NCc4cccs4)CC3)nc3ccccc32)c1 | 940 nM
O=C(N[C@@H](Cc1ccccc1)[C@H](O)CNC1CCc2ccccc2C1)c1cc(C2CCCC2)cc(N2CCCC2=O)c1 (some centres undefined) | 160 nM
CN(C)CCNCc1ccc(-c2ccc3c(Nc4ccc(Oc5ccccc5)cc4)ccnc3c2)o1 | 280 nM

SMILES | IC50
COc1ccc(CCn2c(=N)c(C(=O)NCc3ccc(C)cc3)cc3c(=O)n4ccccc4nc32)cc1 | 1130 nM
COc1ccc(Nc2c3ccc(Cl)cc3nc3ccc(OC)cc23)cc1 | 440 nM
Cc1cc(Cl)ccc1NC(=O)NCCCCCN1CCC(c2c[nH]c3ccccc23)CC1 | 1010 nM
Nc1ncc(-c2ccc3nccc(-c4ccncc4)c3c2)cc1S(=O)(=O)N1CCCCC1 | 580 nM
Cc1[nH]c(C)c(-c2ccc(Nc3ccc(C(F)(F)F)cn3)cc2)c(=O)c1Br | 30 nM
CC(C)(C)c1ccc(NC(=O)Nc2ccc(Cn3ncc(N4CCCNCC4)c(Cl)c3=O)cc2)cc1 | 750 nM
Cc1ccc(CN2CCN(CC(O)COc3ccc4c(c3)CCC4)CC2)cc1 (centres undefined) | 860 nM
CC(=O)Nc1ccc2[nH]cc(C3CCN(CC4CCN(C(=O)/C=C/c5ccc(Cl)c(Cl)c5)CC4)CC3)c2n1 | 160 nM
CC1CN(Cc2ccc(-c3ccc(-c4nc5ccc(F)cc5[nH]4)cc3)cc2)CC(C)O1 (centres undefined) | 560 nM
C=Cc1ccccc1C1(O)CCN(CCCCNC(=O)c2ccc(-c3ccc(C#N)cc3)cc2)CC1 | 520 nM
Cc1ccc(/C=C/C(=O)NC2CCC(N3CCC(c4ccccc4C)CC3)CC2)cc1F (centres undefined) | 1040 nM
COc1cc(Nc2nccc(Nc3ccc4c(C)[nH]nc4c3)n2)cc2ccccc12 | 700 nM
CCCCCCCC1=NN2C(=N)C(=Cc3cc(Br)c(OCc4ccc(F)cc4)c(OCC)c3)C(=O)N=C2S1 | 1050 nM
COc1ccc2c(OC)ccc(CNCCCCCCNCc3ccc(OC)c4ccc(OC)cc34)c2c1 | 400 nM
O=C(/C=C/c1ccc(Cl)c(Cl)c1)NC1CCC(CN2CCC(c3c[nH]c4cc(O)ccc34)CC2)CC1 (centres undefined) | 810 nM
O=C1Nc2cccc3c2C1(CCCCN1CCC(c2cc4ccncc4[nH]2)CC1)CCC3 (centres undefined) | 790 nM and 910 nM
CC(C)(C)c1ccc(CN2CCC(NC(=O)c3ccc(-c4ccccc4Cl)s3)CC2)cc1 | 1350 nM
CCC(=O)N(c1ccccc1)C1CCN(CCCC(NC(=O)Nc2cc(C(F)(F)F)cc(C(F)(F)F)c2)c2ccc(Cl)c(Cl)c2)CC1 (centres undefined) | 670 nM
Cc1[nH]c2ccc(-c3ccc(OC(F)(F)F)cc3)cc2c(=O)c1C#N | 20 nM
O=C(N[C@H]1CCN(Cc2ccc(OC3CCN(Cc4ccccc4)CC3)c(Br)c2)C1)c1ccc(Cl)c(Cl)c1 | 780 nM
O=C(c1cccc(-c2noc(C(F)(F)F)n2)c1)N1CCN(c2ccncc2)CC1 | 230 nM
CC(C)(C)OC(=O)N[C@@H](Cc1ccccc1)C(=O)Nc1cccc(-c2cccc(NC(=O)[C@H](Cc3ccccc3)NC(=O)OC(C)(C)C)c2)c1 | 610 nM
Oc1c(C(Nc2ccccn2)c2ccc(Cl)cc2Cl)ccc2cccnc12 (centres undefined) | 890 nM
Cc1cccc2[nH]c(-c3cccc(-c4ccc(NC(=O)CN5CCN(C)CC5)cc4)c3)nc12 | 560 nM

SMILES | IC50
O=C(/C=C/c1ccc(-c2nc3ccc(Cl)cc3[nH]2)cc1)NC1CCN(Cc2ccccc2)CC1 | 610 nM
O=C(Nc1ccc(N2CCCCC2)c(Cl)c1)c1ccc(Br)o1 | 550 nM
CCN(CC)CCNc1ccnc2[nH]c3ccc(I)cc3c12 | 230 nM
Nc1ccc(-c2nc3ccc(-c4ccc5nc(-c6ccc(N)cc6)[nH]c5c4)cc3[nH]2)cc1 | 130 nM
CCc1c[nH]c2c(N3CCCC3=O)cc(C(=O)N[C@@H](Cc3ccccc3)[C@H](O)CNC(C)(C)c3cccc(OC)c3)cc12 | 190 nM
O=C(Nc1ccc(OC2CCN(Cc3ccc(F)cc3)C2)c(Cl)c1)c1ccccc1 (centres undefined) | 790 nM
COc1cc2nc(NCCCOC(C)C)n3nc(-c4ccccc4)nc3c2cc1OC | 200 nM
CN(C)C(=O)c1ccc(CN(Cc2ccc(OC(C)(C)C)cc2)Cc2ccc3c(c2)OCCO3)cc1 | 830 nM
CO/C(=C\C=C\c1cc2cc(Cl)c(Cl)cc2[nH]1)C(=O)NC1C[C@H]2CCC[C@@H](C1)N2C (some centres undefined) | 1000 nM
CN(Cc1ccccc1)C1CCN(c2cc(NC(=O)c3cccc(F)c3)ccn2)CC1 | 1510 nM
O=C(Nc1cccc(-c2ccc(-c3nc4ccc(C(F)(F)F)cc4[nH]3)cc2)c1)c1cccnc1 | 570 nM
O=C(/C=C/c1ccc(Cl)c(Cl)c1)NCCCCCN1CCC(NC(=S)Nc2ccc(Cl)c(Cl)c2)CC1 | 530 nM
Cc1c(Cl)cccc1S(=O)(=O)N1CCCCC(c2ccc(C(F)(F)F)cc2)=N1 | 790 nM
Cc1nc2sccn2c1C(=O)NCCc1ccccc1Cl | 800 nM
Cc1nc(N=C(N)N)nc2ccc(C(C)(C)C)cc12 | 750 nM
O=C(Nc1cccc(CN2CCCN(CCc3ccccc3)CC2)c1)c1cc2ccccc2s1 | 1130 nM
O=S(=O)(Nc1ccc(CCN2CCC(N3CCCCC3)CC2)cc1)c1ccc2ccccc2c1 | 1010 nM
O=C1COc2cc(Cl)c(CNC3CCN(CCc4ccnc5c(F)cc(F)cc45)CC3)nc2N1 | 800 nM
Cn1cnc2c(Nc3ccncc3)nc(-c3ccc(OC(F)(F)F)cc3)nc21 | 1100 nM
COCn1ncc2cc(-c3cccc(NC(=O)c4csc(NC(C)=O)n4)c3)ccc21 | 990 nM
O=C(NCCCCCN1CCC(c2c[nH]c3ccccc23)CC1)Nc1ccc(Cl)c(Cl)c1 | 920 nM
C=CC[C@@H](C(=O)OCC)[C@@H]1[C@@H](N(CC=C)C(=O)OC(C)(C)C)CCN1C(=O)OCc1ccccc1 | 960 nM
